Holding throughout (assay): Bliss interaction score (quartile over a dose matrix) (fitness difference); higher = more antagonism (negative = synergy)
The test system of one test is B. subtilis 168. The gist of the method:
(§1)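 The Bliss score is observed minus expected fitness under the product model, reported as quartiles over technical, biological and donor/recipient replicates. Fitness is the OD595 at entry into stationary phase divided by the plate's robust no-drug mean and capped at 1. Single-drug fitness was inferred from combination data.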

A further test concerns S. aureus DSM 20231. The gist of the method: as §1
The subject of a further test is S. aureus Newman. The gist of the method:
as §1

For a further test, the system named is S. pneumoniae D39V. The gist of the method:
as §1

Structures are written as SMILES.
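Further: first quartile when negative (synergy) and third quartile when positive (antagonism).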

On to `CC[C@H]1OC(=O)[C@H](C)[C@@H](O[C@H]2C[C@@](C)(OC)[C@@H](O)[C@H](C)O2)[C@H](C)[C@@H](O[C@@H]2O[C@H](C)C[C@H](N(C)C)[C@H]2O)[C@](C)(O)C[C@@H](C)CN(C)[C@H](C)[C@@H](O)[C@]1(C)O` [Azithromycin] + CO[C@@]12[C@H](COC(N)=O)C3=C(C(=O)C(C)=C(N)C3=O)N1C[C@@H]1N[C@@H]12 [MitomycinC], for which the Bliss interaction score in the test with B. subtilis 168 was 0.116; with S. aureus DSM 20231, -0.0652; in the test on S. aureus Newman, 0.0499; in the test with S. pneumoniae D39V it was -0.0779.

For `CC[C@H]1OC(=O)[C@H](C)[C@@H](O[C@H]2C[C@@](C)(OC)[C@@H](O)[C@H](C)O2)[C@H](C)[C@@H](O[C@@H]2O[C@H](C)C[C@H](N(C)C)[C@H]2O)[C@](C)(O)C[C@@H](C)CN(C)[C@H](C)[C@@H](O)[C@]1(C)O` [Azithromycin] + CO[C@H]1/C=C/O[C@@]2(C)Oc3c(C)c(O)c4c(O)c(c(/C=N/N5CCN(C)CC5)c(O)c4c3C2=O)NC(=O)/C(C)=C\C=C\[C@H](C)[C@H](O)[C@@H](C)[C@@H](O)[C@@H](C)[C@H](OC(C)=O)[C@@H]1C [Rifampicin], the Bliss interaction score with B. subtilis 168 was 0.0851; in the test on S. aureus DSM 20231 it was 0.0531; in the test on S. aureus Newman, 0.0263; with S. pneumoniae D39V it was -0.0821.

Turning to `CC[C@H]1OC(=O)[C@H](C)[C@@H](O[C@H]2C[C@@](C)(OC)[C@@H](O)[C@H](C)O2)[C@H](C)[C@@H](O[C@@H]2O[C@H](C)C[C@H](N(C)C)[C@H]2O)[C@](C)(O)C[C@@H](C)CN(C)[C@H](C)[C@@H](O)[C@]1(C)O` [Azithromycin] + C[C@@H](O)[C@H]1C(=O)N2C(C(=O)O)=C(SCCNC=N)C[C@H]12 [Imipenem], the Bliss interaction score was 0.105 in the test on B. subtilis 168, -0.0324 with S. aureus DSM 20231, -0.0196 in the test with S. aureus Newman and 0.0485 in the test with S. pneumoniae D39V.

In the case of `CC[C@H]1OC(=O)[C@H](C)[C@@H](O[C@H]2C[C@@](C)(OC)[C@@H](O)[C@H](C)O2)[C@H](C)[C@@H](O[C@@H]2O[C@H](C)C[C@H](N(C)C)[C@H]2O)[C@](C)(O)C[C@@H](C)CN(C)[C@H](C)[C@@H](O)[C@]1(C)O` [Azithromycin] + Clc1ccc(COC(Cn2ccnc2)c2ccc(Cl)cc2Cl)c(Cl)c1 [Miconazole], the Bliss interaction score was 0.0679 in the test on B. subtilis 168, -0.0368 in the test with S. aureus DSM 20231, 0.0828 in the test with S. aureus Newman and 0.0855 with S. pneumoniae D39V.

Regarding `CC[C@H]1OC(=O)[C@H](C)[C@@H](O[C@H]2C[C@@](C)(OC)[C@@H](O)[C@H](C)O2)[C@H](C)[C@@H](O[C@@H]2O[C@H](C)C[C@H](N(C)C)[C@H]2O)[C@](C)(O)C[C@@H](C)CN(C)[C@H](C)[C@@H](O)[C@]1(C)O` [Azithromycin] + N[C@@H]1CONC1=O [CycloserineD], the Bliss interaction score with B. subtilis 168 was 0.0718; in the test with S. aureus DSM 20231 it was -0.103; in the test with S. aureus Newman, 0.0743; in the test on S. pneumoniae D39V, 0.135.

Take `O=C(O)[C@H]1/C(=C/CO)O[C@@H]2CC(=O)N21` [Clavulanic] + C/C(=C\C(=O)OCCCCCCCCC(=O)O)C[C@@H]1OC[C@H](C[C@@H]2O[C@H]2[C@@H](C)[C@H](C)O)[C@@H](O)[C@H]1O [Pseudomonic acid]: the figures for the Bliss interaction score with B. subtilis 168 and with S. pneumoniae D39V were -0.0513 and -0.0849, respectively.

On to `O=C(O)[C@H]1/C(=C/CO)O[C@@H]2CC(=O)N21` [Clavulanic] + CN[C@@H]1[C@H](O[C@H]2[C@H](O[C@H]3[C@H](O)[C@@H](O)[C@H](N=C(N)N)[C@@H](O)[C@@H]3N=C(N)N)O[C@@H](C)[C@]2(O)C=O)O[C@@H](CO)[C@H](O)[C@H]1O [Streptomycin], for which the results for the Bliss interaction score in the test with B. subtilis 168, in the test with S. aureus Newman and in the test with S. pneumoniae D39V were 0.0954, 0.218 and 0.0425, respectively.

Regarding `c1ccc2c(CC3=NCCN3)cccc2c1` [Naphazoline] + COc1cc(Cc2cnc(N)nc2N)cc(OC)c1OC [Trimethoprim], in the test with S. aureus DSM 20231, the Bliss interaction score was determined as 0.236.

For the compound `CN1CCC[C@H]1c1cccnc1` [Nicotine] + CC[C@H]1OC(=O)[C@H](C)C(=O)[C@H](C)[C@@H](O[C@@H]2O[C@H](C)C[C@H](N(C)C)[C@H]2O)[C@](C)(OC)C[C@@H](C)C(=O)[C@H](C)[C@H]2N(CCCCn3cnc(-c4cccnc4)c3)C(=O)O[C@]12C [Telithromycin], in the test on S. aureus DSM 20231, the Bliss interaction score was -0.342.

Turning to `Cc1onc(-c2ccccc2)c1C(=O)N[C@@H]1C(=O)N2[C@@H]1SC(C)(C)[C@@H]2C(=O)O` [Oxacillin] + CCCSc1nc(N[C@@H]2C[C@H]2c2ccc(F)c(F)c2)c2nnn([C@@H]3C[C@H](OCCO)[C@@H](O)[C@H]3O)c2n1 [Ticagrelor], the Bliss interaction score in the test on S. aureus DSM 20231 was 0.171.

For the compound `Cc1onc(-c2ccccc2)c1C(=O)N[C@@H]1C(=O)N2[C@@H]1SC(C)(C)[C@@H]2C(=O)O` [Oxacillin] + Cc1c(Cl)cccc1Nc1ccccc1C(=O)O [Tolfenamic], in the test on S. aureus DSM 20231, the Bliss interaction score turned out to be 0.138.

Turning to `CN(N=O)C(=O)N[C@@H](C=O)[C@@H](O)[C@H](O)[C@H](O)CO` [Streptozotocin] + CCCSc1nc(N[C@@H]2C[C@H]2c2ccc(F)c(F)c2)c2nnn([C@@H]3C[C@H](OCCO)[C@@H](O)[C@H]3O)c2n1 [Ticagrelor], the Bliss interaction score with S. aureus DSM 20231 came out at 0.221.

Regarding `Cc1cc(NS(=O)(=O)c2ccc(N)cc2)no1` [Sulfamethoxazol] + CCCSc1nc(N[C@@H]2C[C@H]2c2ccc(F)c(F)c2)c2nnn([C@@H]3C[C@H](OCCO)[C@@H](O)[C@H]3O)c2n1 [Ticagrelor], in the test on S. aureus DSM 20231, the Bliss interaction score was 0.254.

In the case of `CC[C@H]1OC(=O)[C@H](C)C(=O)[C@H](C)[C@@H](O[C@@H]2O[C@H](C)C[C@H](N(C)C)[C@H]2O)[C@](C)(OC)C[C@@H](C)C(=O)[C@H](C)[C@H]2N(CCCCn3cnc(-c4cccnc4)c3)C(=O)O[C@]12C` [Telithromycin] + Cc1ccc(C(C)C)c(O)c1 [Thymol], the Bliss interaction score with S. aureus DSM 20231 was -0.222.

For the compound `Cc1c(Cl)cccc1Nc1ccccc1C(=O)O` [Tolfenamic] + CN[C@H](CC(C)C)C(=O)N[C@H]1C(=O)N[C@@H](CC(N)=O)C(=O)N[C@H]2C(=O)N[C@H]3C(=O)N[C@H](C(=O)N[C@H](C(=O)O)c4cc(O)cc(O)c4-c4cc3ccc4O)[C@H](O)c3ccc(c(Cl)c3)Oc3cc2cc(c3O[C@@H]2O[C@H](CO)[C@@H](O)[C@H](O)[C@H]2O[C@H]2C[C@](C)(N)[C@H](O)[C@H](C)O2)Oc2ccc(cc2Cl)[C@H]1O [Vancomycin], the Bliss interaction score in the test on S. aureus DSM 20231 turned out to be 0.124.

For the compound `Cc1c(Cl)cccc1Nc1ccccc1C(=O)O` [Tolfenamic] + COc1cc(Cc2cnc(N)nc2N)cc(OC)c1OC [Trimethoprim], the Bliss interaction score in the test with S. aureus DSM 20231 is -0.185.

(Values after the supplement of paper PMC10627819.)
